Measurements: paper PMC12525867, “Aromaticity Tuning in Biaryl Monophosphines and Their Derivatives” (Molecules, 2025)
Converted amounts (≈) assume the structure as drawn. Read-outs that look alike come from different tables or passages of the source.

Key:
K. pneumoniae ATCC 13883 = experiment: Antibacterial screening, broth microdilution (MIC/MBC); assay type: cell-based, Klebsiella pneumoniae; settings: for MIC: K. pneumoniae ATCC 13883, MHB, 24 h, 35 °C
Procedure: (§1) The antimicrobial activities of a series of compounds 1–5 were tested through the utilization of seven reference species, encompassing both Gram-positive (Staphylococcus aureus ATCC 29213, Staphylococcus epidermidis ATCC 12228, Micrococcus luteus ATCC 10240) and Gram-negative (Escherichia coli ATCC 25922, Klebsiella pneumoniae ATCC 13883, Proteus mirabilis ATCC 12453, Acinetobacter baumannii ATCC 19606) bacteria as model microorganisms. For this purpose, microbial suspensions were prepared in sterile saline (0.85% NaCl) with an optical density of 0.5 McFarland standard, yielding a concentration of 150 × 10^6 CFU/mL (CFU, colony-forming units). All of the stock solutions of the tested compounds were dissolved in DMSO. Amoxicillin (Glentham Life Sciences Ltd., Corsham, UK) was used as a positive control.
(§2) The MIC values of the tested compounds were determined by serial twofold dilutions of 1–5 in Mueller Hinton Broth (MHB, Biomaxima, Lublin, Poland). The range of final 1–5 concentrations used was from 0.49 up to 1000 μg/mL, and for amoxicillin from 0.12 up to 250 μg/mL in the 96-well microtiter plates (Medlab, Raszyn, Poland), starting with 98 μL MHB and 2 μL bacterial inoculum added to each well. Positive controls consisted of 100 μL MHB in each well with the tested compounds at the same concentration range. The negative controls consisted of 100 μL of MHB only. Each set of tests and controls was established with three replicates. The microtiter plates were then subjected to an incubation period of 24 h at a temperature of 35 ± 2 °C. After incubation, the optical density of the microbial growth was measured at a wavelength of 600 nm using a microplate reader, the Biotek Elx800 (BioTek Instruments, Inc., Winooski, VT, USA). The MIC value was defined as the lowest concentration of the tested compound at which there was no visible growth of the tested microorganisms. The determination of the MIC values was achieved by employing the broth microdilution method, in accordance with the recommendations of the European Committee on Antimicrobial Susceptibility Testing (EUCAST). […] Then, the MHA plates were incubated overnight at 35 ± 2 °C. […] The MIC and MBC values were reported in μg/mL, according to the EUCAST reference.

P. mirabilis ATCC 12453 = experiment: as above; assay type: cell-based, Proteus mirabilis; settings: for MIC: P. mirabilis ATCC 12453, MHB, 24 h, 35 °C
Procedure: as §1, §2

[1] = Cytotoxicity, microculture tetrazolium (MTT) test, VERO; assay type: cell-based; settings: African green monkey, ATCC CCL-81; VERO (normal kidney cells), 24 h incubation, MTT; ± SD
Procedure: (§3) The cytotoxicity of biaryl monophosphines was tested in vitro in normal (VERO) and cancer-derived (H1HeLa) cells after 24 h of incubation using a microculture tetrazolium test. Table 2 presents the CC50 (concentrations decreasing the cellular viability by 50%) values calculated from dose–response cytotoxicity curves (Figure 4).
(§4) Cytotoxicity was evaluated using a microculture tetrazolium test as previously described, and details can be found in the Supplementary Materials. The cell lines used in the presented study were acquired from the American Type Culture Collection (ATCC); the one used for cytotoxicity testing included non-cancerous VERO (kidney; ATCC CCL-81) cells and cancer-originating H1HeLa (cervical adenocarcinoma; ATCC CRL-1958) cells. VERO cells were cultured in Dulbecco’s Modified Eagle’s Medium (DMEM; Corning, Tewksbury, MA, USA), while Eagle’s Minimum Essential Medium (MEM; Corning) was used for H1HeLa. Antibiotics (penicillin–streptomycin solution, Corning) and fetal bovine serum (FBS, Corning) were added to cell media. Cells were incubated in a 5% CO2 atmosphere at 37 °C (CO2 incubator, Panasonic Healthcare Co., Tokyo, Japan). Briefly, the monolayers of VERO or H1HeLa cells in 96-well plates (Falcon, Corning) were treated with serial dilutions of selected compounds for 24 h. After this, the medium was removed, the plates were washed with phosphate buffered saline (PBS; Corning), a 10% solution of (3-(4,5-dimethylthiazol-2-yl)-2,5-diphenyltetrazolium bromide (MTT; Sigma-Aldrich, St. Louis, MO, USA) (5 mg/mL) in FBS-free cell media was added, and the incubation continued for the next 4 h. Subsequently, the precipitated formazan crystals were dissolved, and after overnight incubation at 37 °C, the Synergy H1 Multi-Mode Microplate Reader (BioTek Instruments, Inc., Winooski, VT, USA) with Gen5 software (ver. 3.09.07; BioTek Instruments, Inc.) was used for absorbance acquisition (540 and 620 nm). Data was exported to GraphPad Prism (ver. 10) to calculate the CC50 values (50% cytotoxic concentration) from dose–response curves.
(§5) Aromaticity Tuning in Biaryl Monophosphines and Their Derivatives […]
(§6) Cell line maintenance and in vitro experiments
(§7) The cytotoxicity of selected biaryl monophosphines was evaluated in vitro towards normal VERO (ATCC, CCL-81) cells and cancer-derived cell line H1HeLa (cervical adenocarcinoma; ATCC (American Type Culture Collection) CRL-1958) using 3-(4,5-dimethylthiazol-2-yl)-2,5-diphenylte-trazolium bromide (MTT) based protocol.
(§8) Media used for in vitro culturing included Dulbecco's Modified Eagle's Medium (DMEM, Corning, Tewksbury, MA, USA) used for VERO cells and Modified Eagle Medium (MEM, Corning) used for H1HeLa. Cell media used in the experiments were supplemented with antibiotics (Penicil-lin-Streptomycin Solution, Corning) and fetal bovine serum (FBS, Corning) – 10% (cell passaging) and 2% (cell maintenance and experiments). Phosphate-buffered saline (PBS) and trypsin were bought from Corning, whereas MTT (3-(4,5-dimethylthiazol-2-yl)-2,5-diphenyltetrazolium bromide) from Sigma (Sigma-Aldrich, St. Louis, MO, USA). SDS was purchased from PanReac Applichem (Darmstadt, Germany). Incubation was carried out in a 5% CO2 atmosphere at 37°C (CO2 incubator, Panasonic Healthcare Co., Tokyo, Japan).
(§9) Concentrations of cells for passaging were as follows: VERO – 1.5*10^5 cells/mL, H1HeLa – 2*10^5 cells/mL. Routine observations of cell cultures and experiments were carried out using an in-verted microscope (CKX41, Olympus Corporation, Tokyo, Japan) equipped with a ca mera (Moti-cam 3+, Motic, Hong Kong), and the results were recorded (Motic Images Plus 2.0, Motic).
(§10) Stock solutions of biaryl monophosphines were prepared by dissolving the samples in cell culture grade DMSO (PanReac Applichem).
(§11) Evaluation of cytotoxicity
(§12) Cytotoxicity was tested using an MTT-based protocol. The cells were passaged into 96-well plates (Falcon, TC-treated, Corning) and, after overnight incubation, treated with serial dilutions of […]

[2] = Cytotoxicity, microculture tetrazolium (MTT) test, H1HeLa; assay type: cell-based; settings: human, H1HeLa cells (cervical adenocarcinoma, ATCC CRL-1958); H1HeLa (cervical adenocarcinoma), 24 h incubation, MTT; ± SD
Procedure: as §3, §4, §5, §6, §7, §8, §9, §10, §11, §12

M. luteus ATCC 10240 = experiment: Antibacterial screening, broth microdilution (MIC/MBC); assay type: cell-based, Micrococcus luteus; settings: for MIC: ATCC10240, 24 h, M. luteus ATCC 10240, MHB, 24 h, 35 °C; for MBC: M. luteus ATCC 10240
Procedure: as §1, §2

A. baumannii ATCC 19606 = experiment: as above; assay type: cell-based, Acinetobacter baumannii; settings: for MIC: A. baumannii ATCC 19606, MHB, 24 h, 35 °C
Procedure: as §1, §2

E. coli ATCC 25922 = experiment: as above; assay type: cell-based, Escherichia coli; settings: for MIC: E. coli ATCC 25922, MHB, 24 h, 35 °C
Procedure: as §1, §2

S. aureus ATCC 29213 = experiment: as above; assay type: cell-based, Staphylococcus aureus; settings: for MIC: S. aureus ATCC 29213, MHB, 24 h, 35 °C; for MBC: S. aureus ATCC 29213
Procedure: as §1, §2

[3] = system: S. epidermidis ATCC 12228; experiment: as above; assay type: cell-based, Staphylococcus epidermidis; settings: for MIC: S. epidermidis ATCC 12228, MHB, 24 h, 35 °C
Procedure: as §1, §2

VERO cells = experiment: Cytotoxicity, microculture tetrazolium (MTT) test, VERO; assay type: cell-based
Procedure: as §3, §4, §5, §6, §7, §8, §9, §10, §11, §12

H1HeLa cells = experiment: Cytotoxicity, microculture tetrazolium (MTT) test, H1HeLa; assay type: cell-based
Procedure: as §3, §4, §5, §6, §7, §8, §9, §10, §11, §12

[4] = Klebsiella pneumoniae, ATCC13883, read-out: MIC
[5] = Proteus mirabilis, ATCC12453, read-out: MIC
[6] = Micrococcus luteus, ATCC10240, read-out: MBC
[7] = Acinetobacter baumannii, ATCC19606, read-out: MIC
[8] = Escherichia coli, ATCC25922, read-out: MIC
[9] = Staphylococcus aureus, ATCC29213, read-out: MIC
[10] = Staphylococcus aureus, ATCC29213, read-out: MBC
[11] = Staphylococcus epidermidis, ATCC12228, read-out: MIC
[12] = Staphylococcus epidermidis, ATCC12228, S. epidermidis ATCC 12228, read-out: MBC

Row | Compound | MIC (K. pneumoniae ATCC 13883; [4]) | MIC (P. mirabilis ATCC 12453; [5]) | MIC (M. luteus ATCC 10240; Micrococcus luteus) | MBC (M. luteus ATCC 10240; [6]) | MIC (A. baumannii ATCC 19606; [7]) | MIC (E. coli ATCC 25922; [8]) | MIC (S. aureus ATCC 29213; [9]) | MBC (S. aureus ATCC 29213; [10]) | MIC [3, 11] | MBC [3, 12] | further results
1 | COc1ccccc1-c1c(P(=O)(C2CCCCC2)C2CCCCC2)c(O)c2ccccc2c1O [Compound 4, 2-(Dicyclohexylphosphoryl)-3-(2-methoxyphenyl)naphthalene-1,4-diol] | 500 µg/mL (≈ 1040 µM) | 1000 µg/mL (≈ 2090 µM) | 15.6 to 31.2 µg/mL (≈ 32.7 to 65.3 µM) | > 1000 µg/mL | 1000 µg/mL (≈ 2090 µM) | 500 to 1000 µg/mL (≈ 1040 to 2090 µM) | 250 µg/mL (≈ 522 µM) | > 1000 µg/mL | 500 µg/mL (≈ 1040 µM) | > 1000 µg/mL | CC50 at 24 h [1]: 4.7 ± 0.41 µg/mL; CC50 at 24 h [2]: 5.53 ± 0.12 µg/mL
2 | Dicyclohexyl[1,4-dimethoxy-3-(2,4,6-trimethoxyphenyl)naphthalen-2-yl]phosphane [Compound 5] |  |  |  |  |  |  |  |  |  |  | MIC (K. pneumoniae ATCC 13883): >1000 µg/mL; MIC (P. mirabilis ATCC 12453): >1000 µg/mL; CC50 (VERO cells): 89.88 ± 4.11 µg/mL; CC50 (H1HeLa cells): 200.85 ± 13.08 µg/mL; MBC (M. luteus ATCC 10240): 125 µg/mL; MIC (A. baumannii ATCC 19606): 1000 µg/mL; MIC (E. coli ATCC 25922): >1000 µg/mL; MBC (S. aureus ATCC 29213): >1000 µg/mL; MIC (S. aureus ATCC 29213): 125 to 250 µg/mL; MBC ([3]; S. epidermidis ATCC 12228): 1000 µg/mL; type of activity (bactericidal or bacteriostatic) ([3]; S. epidermidis ATCC 12228): bactericidal; MIC [3]: 31.25 to 62.5 µg/mL
3 | CC1(C)S[C@@H]2[C@H](NC(=O)[C@H](N)c3ccc(O)cc3)C(=O)N2[C@H]1C(=O)O [Amox, Amoxicillin, reference compound] | 250 µg/mL (≈ 684 µM) | 0.49 µg/mL (≈ 1.34 µM) | 31.2 µg/mL (≈ 85.5 µM) | 31.2 µg/mL (≈ 85.5 µM) | 125 µg/mL (≈ 342 µM) | 3.91 µg/mL (≈ 10.7 µM) | 0.98 µg/mL (≈ 2.68 µM) | 0.98 µg/mL (≈ 2.68 µM) | 31.2 µg/mL (≈ 85.5 µM) | 31.2 µg/mL (≈ 85.5 µM) | MBC (K. pneumoniae ATCC 13883; Klebsiella pneumoniae, ATCC13883, K. pneumoniae ATCC 13883): 250 µg/mL (≈ 684 µM); MBC (P. mirabilis ATCC 12453; Proteus mirabilis, ATCC12453, P. mirabilis ATCC 12453): 0.49 µg/mL (≈ 1.34 µM); MBC (A. baumannii ATCC 19606; Acinetobacter baumannii, ATCC19606, A. baumannii ATCC 19606): 125 µg/mL (≈ 342 µM); MBC (E. coli ATCC 25922; Escherichia coli, ATCC25922, E. coli ATCC 25922): 7.81 µg/mL (≈ 21.4 µM)
